Source: ChEMBL document CHEMBL1201862, “PubChem BioAssay data set” (2004)
Activity calls are given as the source filed them.

Key:
[1] = target: Tyrosine-protein phosphatase non-receptor type 11 (Homo sapiens, UniProt Q06124); assay: PTPN11 enzyme inhibitors – biochemical, selectivity assay for STEP inhibitor project, dose response (AID 602367); type: functional; conditions: read-out: IC50_Mean
[2] = target: Dual specificity protein phosphatase 3 (Homo sapiens, UniProt P51452); assay: VHR phosphatase inhibition, dose response, selectivity assay for STEP inhibitor project, biochemical (AID 602374); type: functional; conditions: read-out: IC50_Mean
[3] = target: Tyrosine-protein phosphatase non-receptor type 5 (Homo sapiens, UniProt P54829); assay: PTPN5 enzyme inhibition – biochemical, fluorescence intensity, uHTS hits, confirmation (AID 602372); type: functional; conditions: read-out: IC50_Mean
[4] = target: Glucose-6-phosphate 1-dehydrogenase (Homo sapiens, UniProt P11413); assay: inhibition of Homo sapiens G6PD, dose series – biochemical, fluorescence, selectivity assay for P. falciparum G6PD inhibitor project, dose response (AID 504792); type: functional
Cytochrome P450 3A4 = Cytochrome P450 3A4 (Homo sapiens, UniProt P08684);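 also: CYP3A4 tested as one member of a cytochrome P450 panel screen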
Cytochrome P450 1A2 = target: T1, Cytochrome P450 1A2 (Homo sapiens, UniProt P05177);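 also: PubChem cytochrome P450 panel assay, CYP1A2 panel member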
T1 sequence (P05177 whole entry): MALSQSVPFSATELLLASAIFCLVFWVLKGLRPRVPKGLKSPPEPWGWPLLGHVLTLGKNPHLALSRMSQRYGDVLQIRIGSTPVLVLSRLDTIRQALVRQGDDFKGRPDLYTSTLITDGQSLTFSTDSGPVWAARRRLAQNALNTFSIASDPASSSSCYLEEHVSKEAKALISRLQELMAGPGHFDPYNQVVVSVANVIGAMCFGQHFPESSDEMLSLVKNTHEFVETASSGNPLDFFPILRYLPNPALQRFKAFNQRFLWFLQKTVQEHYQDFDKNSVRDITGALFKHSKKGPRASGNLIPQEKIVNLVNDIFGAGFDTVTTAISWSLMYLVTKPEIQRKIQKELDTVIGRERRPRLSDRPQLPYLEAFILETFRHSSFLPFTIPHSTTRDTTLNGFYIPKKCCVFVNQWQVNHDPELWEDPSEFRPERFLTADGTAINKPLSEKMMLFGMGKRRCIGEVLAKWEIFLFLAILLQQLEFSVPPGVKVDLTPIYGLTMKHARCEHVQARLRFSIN

Cytochrome P450 2C9 = Cytochrome P450 2C9 (Homo sapiens, UniProt P11712)
[5] = test system: Streptococcus sp. 'group A'; assay: Streptococcus pyogenes SK(-)GAS viability under kanamycin – luminescence, BacTiterGlo, confirmation, counter-screen for streptokinase expression inhibitor project, dose response (AID 1900); type: functional, organism-based
HeLa = assay: ATP-based viability loss in HeLa cells – cell-based, CellTiter-Glo luminescence, cherry-pick samples, cytotoxicity control for MITF activator project, dose response (AID 540259); type: functional; conditions: Homo sapiens
Fatty acid synthase [6] = target: T2, Fatty acid synthase (Homo sapiens, UniProt P49327); assay: inhibition of human FAS-TE enzyme activity – biochemical, kinetic fluorescence intensity, dose response (AID 624326); type: functional;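 also: rate of fluorescence rise from hydrolysis of a fluorogenic O-methyl fluorescein ester substrate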
[7] = target: FAD-linked sulfhydryl oxidase ALR (Homo sapiens, UniProt P55789); assay: ALR-catalysed DTT oxidation blockers – biochemical, H2O2 detection, luminescence, cherry-pick, dose response (AID 493248)
Streptokinase A = target: T3, Streptokinase A (Streptococcus pyogenes serotype M1, UniProt P10520); assay: viability-normalized secreted streptokinase activity reduction – plasminogen activation absorbance, OD405, dose response (AID 1914); type: functional, Streptococcus pyogenes M1 GAS;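 also: secreted streptokinase activity via plasminogen activation per viability signal from cell pellet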
T3 sequence (P10520 whole entry): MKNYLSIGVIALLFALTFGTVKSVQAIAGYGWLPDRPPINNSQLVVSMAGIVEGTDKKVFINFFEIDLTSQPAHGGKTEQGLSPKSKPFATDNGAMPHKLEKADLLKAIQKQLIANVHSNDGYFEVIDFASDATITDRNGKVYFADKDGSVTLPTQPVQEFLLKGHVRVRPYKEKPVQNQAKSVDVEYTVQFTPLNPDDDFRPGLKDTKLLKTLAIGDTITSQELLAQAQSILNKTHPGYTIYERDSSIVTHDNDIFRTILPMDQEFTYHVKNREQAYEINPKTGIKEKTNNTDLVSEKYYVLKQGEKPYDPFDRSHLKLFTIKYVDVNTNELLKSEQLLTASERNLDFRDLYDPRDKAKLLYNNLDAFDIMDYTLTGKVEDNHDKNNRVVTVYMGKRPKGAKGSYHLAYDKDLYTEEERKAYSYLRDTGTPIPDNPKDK

Fatty acid synthase [8] = target: T2, Fatty acid synthase; assay: inhibition of human FAS-TE enzyme activity – biochemical, endpoint fluorescence intensity, uHTS hits, dose response (AID 624327); type: functional;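 also: fluorescence from hydrolysis of an O-methyl fluorescein acyl ester substrate by the enzyme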
[9] = target: Induced myeloid leukemia cell differentiation protein Mcl-1 (Homo sapiens, UniProt Q07820); type: functional
Streptococcus = assay: GAS UMAA2166 growth inhibition – luminescence, BacTiterGlo, counter-screen for streptokinase expression inhibitor project, dose response (AID 1915); type: functional, organism-based;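 also: potency for reduction of bacterial viability or growth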
Cytochrome P450 2D6 = Cytochrome P450 2D6 (Homo sapiens, UniProt P10635);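 also: CYP2D6 member of a cytochrome P450 panel assay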
Cytochrome P450 2C19 = Cytochrome P450 2C19 (Homo sapiens, UniProt P33261); assay: Cytochrome panel assay with activity outcomes. Panel member name: p450-cyp2c19 Compounds with AC50 equal or less than 10 uM are considered active; type: functional; conditions: read-out: AC50
[10] = target: T4, Polyadenylate-binding protein 1 (Homo sapiens, UniProt P11940); assay: MLLE binding blockers, Cy5 peptide tracer – biochemical, fluorescence polarization, Cy5-PAM2 peptide, secondary, miRNA deadenylation inhibitor project, dose response (AID 602260); type: functional; conditions: read-out: IC50_Mean
[11] = target: T4, Polyadenylate-binding protein 1; assay: MLLE domain peptide-binding blockers, IC50 – biochemical, fluorescence polarization, FITC-PAM2 peptide, dose response (AID 602259); type: functional; conditions: read-out: IC50_Mean
[12] = target: Dual specificity tyrosine-phosphorylation-regulated kinase 1A (Rattus norvegicus, UniProt Q63470); type: biochemical, Homo sapiens
Vero = assay: viability of Vero cells under compound – cytotoxicity control for flavivirus capping enzyme inhibitors (AID 588742); type: functional; conditions: Chlorocebus sabaeus
[13] = target: T5, Tyrosine-protein phosphatase non-receptor type 22 (Homo sapiens, UniProt Q9Y2R2); type: functional
T5 sequence (Q9Y2R2 whole entry): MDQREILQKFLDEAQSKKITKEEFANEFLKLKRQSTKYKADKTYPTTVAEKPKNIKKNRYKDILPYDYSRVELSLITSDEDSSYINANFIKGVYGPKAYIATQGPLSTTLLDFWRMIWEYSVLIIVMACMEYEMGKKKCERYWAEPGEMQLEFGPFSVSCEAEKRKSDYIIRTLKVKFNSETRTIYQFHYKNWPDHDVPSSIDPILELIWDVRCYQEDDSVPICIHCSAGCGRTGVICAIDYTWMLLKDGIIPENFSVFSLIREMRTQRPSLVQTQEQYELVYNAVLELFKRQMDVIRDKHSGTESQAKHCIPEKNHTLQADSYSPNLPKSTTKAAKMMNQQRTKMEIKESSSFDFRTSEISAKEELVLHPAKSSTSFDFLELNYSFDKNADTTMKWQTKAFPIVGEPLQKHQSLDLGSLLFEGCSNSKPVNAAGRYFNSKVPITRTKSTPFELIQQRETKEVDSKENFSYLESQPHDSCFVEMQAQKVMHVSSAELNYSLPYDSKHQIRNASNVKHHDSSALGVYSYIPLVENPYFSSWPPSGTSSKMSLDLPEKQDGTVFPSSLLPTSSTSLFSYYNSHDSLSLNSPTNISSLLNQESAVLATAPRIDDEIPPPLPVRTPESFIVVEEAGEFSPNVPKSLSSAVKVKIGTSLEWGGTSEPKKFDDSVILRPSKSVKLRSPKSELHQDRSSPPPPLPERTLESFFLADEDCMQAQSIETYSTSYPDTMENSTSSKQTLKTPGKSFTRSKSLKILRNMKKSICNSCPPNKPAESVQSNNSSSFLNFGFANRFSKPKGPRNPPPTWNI

[14] = Luminescence Cell-Based Dose Response to Identify Activators of Luciferase Translation or Activity in H4-C Neuroglioblastoma Cells. [Related pubchem assays: 1829 (Project Summary), 1814 (Primary HTS)]; type: functional
[15] = Luminescence Cell-Based Dose Response to Identify Activators of 5'UTR Stem-Loop Driven Prion Protein mRNA Translation in H4-C Neuroglioblastoma Cells. [Related pubchem assays: 1829 (Project Summary), 1814 (Primary HTS)]; type: functional
[16] = Luminescence Cell-Based Dose Confirmation to Identify Activators of 5'UTR Stem-Loop Driven Alpha-Synuclein mRNA Translation in H4 Neuroglioblastoma Cells. [Related pubchem assays: 1829 (Project Summary), 1814 (Primary HTS)]; type: functional
[17] = target: T6, Tyrosine-protein phosphatase non-receptor type 7 (Homo sapiens, UniProt P35236); type: functional
T6 sequence (P35236 whole entry): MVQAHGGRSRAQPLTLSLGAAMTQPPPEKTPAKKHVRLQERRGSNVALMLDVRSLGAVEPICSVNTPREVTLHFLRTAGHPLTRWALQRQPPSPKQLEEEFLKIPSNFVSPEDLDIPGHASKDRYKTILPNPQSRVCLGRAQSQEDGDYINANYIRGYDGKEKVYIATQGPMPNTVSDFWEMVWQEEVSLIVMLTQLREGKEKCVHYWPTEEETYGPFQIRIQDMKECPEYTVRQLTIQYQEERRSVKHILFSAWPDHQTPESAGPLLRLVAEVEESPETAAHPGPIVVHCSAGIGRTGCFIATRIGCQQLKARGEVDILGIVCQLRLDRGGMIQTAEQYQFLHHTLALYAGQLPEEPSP

H4 = assay: Luminescence Cell-Based Dose Response HTS to Identify Activators of 5'UTR Stem-Loop Driven Prion Protein mRNA Translation in H4 Neuroglioblastoma Cells. [Related pubchem assays: 1829 (Project Summary), 1814 (Primary HTS)]; type: functional; conditions: Homo sapiens
[18] = Luminescence Cell-Based Dose Response HTS to Identify Activators of Luciferase Translation or Activity in H4 […] Cells. [Related pubchem assays: 1829 (Project Summary), 1814 (Primary HTS)]; type: functional
[19] = target: T5, Tyrosine-protein phosphatase non-receptor type 22; type: functional; remark: listed apart in the source
[20] = Luminescence Cell-Based Dose Confirmation HTS to Identify Activators of 5'UTR Stem-Loop Driven Alpha-Synuclein mRNA Translation in H4 Neuroglioblastoma Cells. [Related pubchem assays: 1829 (Project Summary), 1814 (Primary HTS)]; type: functional

T2 sequence (P49327 whole entry): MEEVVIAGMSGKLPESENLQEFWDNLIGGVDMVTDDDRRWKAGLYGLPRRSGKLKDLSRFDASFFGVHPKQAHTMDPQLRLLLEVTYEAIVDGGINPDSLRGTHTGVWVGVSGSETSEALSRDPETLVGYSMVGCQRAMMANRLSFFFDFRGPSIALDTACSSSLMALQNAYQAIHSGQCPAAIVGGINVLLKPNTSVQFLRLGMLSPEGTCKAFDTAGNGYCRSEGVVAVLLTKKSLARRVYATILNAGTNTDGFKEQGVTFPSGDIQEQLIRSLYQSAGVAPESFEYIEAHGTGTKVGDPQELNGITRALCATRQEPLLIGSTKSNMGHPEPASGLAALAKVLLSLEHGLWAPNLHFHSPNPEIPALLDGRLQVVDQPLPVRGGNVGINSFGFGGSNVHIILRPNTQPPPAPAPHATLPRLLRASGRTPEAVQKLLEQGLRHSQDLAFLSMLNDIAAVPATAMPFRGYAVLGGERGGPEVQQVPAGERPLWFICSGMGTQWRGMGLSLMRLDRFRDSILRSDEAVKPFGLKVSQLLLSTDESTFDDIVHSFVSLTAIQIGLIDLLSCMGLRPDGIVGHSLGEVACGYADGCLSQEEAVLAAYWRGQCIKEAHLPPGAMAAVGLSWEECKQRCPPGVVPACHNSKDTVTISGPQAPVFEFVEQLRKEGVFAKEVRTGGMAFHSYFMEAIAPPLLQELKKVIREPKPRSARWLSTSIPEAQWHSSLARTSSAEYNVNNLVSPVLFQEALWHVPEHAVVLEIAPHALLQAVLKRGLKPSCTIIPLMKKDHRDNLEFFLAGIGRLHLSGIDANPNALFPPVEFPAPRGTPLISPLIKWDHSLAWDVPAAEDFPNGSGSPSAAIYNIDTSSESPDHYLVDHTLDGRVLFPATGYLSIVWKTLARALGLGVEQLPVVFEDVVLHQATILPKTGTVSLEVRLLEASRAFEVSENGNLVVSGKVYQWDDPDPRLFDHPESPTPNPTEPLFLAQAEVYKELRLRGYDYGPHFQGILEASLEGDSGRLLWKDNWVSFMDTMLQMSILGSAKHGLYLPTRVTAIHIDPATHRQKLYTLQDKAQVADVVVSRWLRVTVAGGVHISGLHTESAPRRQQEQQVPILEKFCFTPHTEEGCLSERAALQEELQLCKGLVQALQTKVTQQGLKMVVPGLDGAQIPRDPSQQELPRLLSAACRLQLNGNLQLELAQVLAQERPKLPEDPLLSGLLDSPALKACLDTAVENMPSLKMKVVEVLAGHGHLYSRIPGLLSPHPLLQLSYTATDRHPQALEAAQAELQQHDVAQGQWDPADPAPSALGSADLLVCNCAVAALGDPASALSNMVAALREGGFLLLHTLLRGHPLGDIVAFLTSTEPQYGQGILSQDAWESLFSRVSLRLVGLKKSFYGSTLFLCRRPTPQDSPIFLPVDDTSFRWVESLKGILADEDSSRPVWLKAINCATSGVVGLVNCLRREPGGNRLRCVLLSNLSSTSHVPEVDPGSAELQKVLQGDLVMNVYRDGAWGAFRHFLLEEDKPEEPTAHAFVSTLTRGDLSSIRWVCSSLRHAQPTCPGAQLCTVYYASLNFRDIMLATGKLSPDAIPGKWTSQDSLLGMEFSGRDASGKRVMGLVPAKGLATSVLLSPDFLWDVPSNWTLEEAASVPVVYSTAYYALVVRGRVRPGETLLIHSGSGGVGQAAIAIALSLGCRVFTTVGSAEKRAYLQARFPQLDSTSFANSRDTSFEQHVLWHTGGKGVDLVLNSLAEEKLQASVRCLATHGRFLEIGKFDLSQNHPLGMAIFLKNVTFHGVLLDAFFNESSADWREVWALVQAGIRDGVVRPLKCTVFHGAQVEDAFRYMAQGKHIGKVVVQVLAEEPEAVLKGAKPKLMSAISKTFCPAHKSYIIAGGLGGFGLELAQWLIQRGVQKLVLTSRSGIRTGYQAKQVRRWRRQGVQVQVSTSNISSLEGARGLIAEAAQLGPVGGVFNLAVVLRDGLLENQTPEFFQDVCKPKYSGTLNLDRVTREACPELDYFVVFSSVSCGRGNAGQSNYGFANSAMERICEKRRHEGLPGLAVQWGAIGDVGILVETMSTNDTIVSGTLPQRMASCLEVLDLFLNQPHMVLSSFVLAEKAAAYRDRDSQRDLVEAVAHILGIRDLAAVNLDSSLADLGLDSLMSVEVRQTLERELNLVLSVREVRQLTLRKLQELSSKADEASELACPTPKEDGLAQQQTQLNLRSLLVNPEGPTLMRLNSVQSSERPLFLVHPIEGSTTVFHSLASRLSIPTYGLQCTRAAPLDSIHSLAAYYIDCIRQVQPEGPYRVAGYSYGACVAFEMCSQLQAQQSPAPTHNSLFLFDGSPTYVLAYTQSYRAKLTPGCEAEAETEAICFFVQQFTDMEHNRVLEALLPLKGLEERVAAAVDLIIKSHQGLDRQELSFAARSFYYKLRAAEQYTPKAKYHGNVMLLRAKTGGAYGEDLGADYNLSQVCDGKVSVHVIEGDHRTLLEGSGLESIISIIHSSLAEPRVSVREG
T4 sequence (P11940 whole entry, the tested form may be a part): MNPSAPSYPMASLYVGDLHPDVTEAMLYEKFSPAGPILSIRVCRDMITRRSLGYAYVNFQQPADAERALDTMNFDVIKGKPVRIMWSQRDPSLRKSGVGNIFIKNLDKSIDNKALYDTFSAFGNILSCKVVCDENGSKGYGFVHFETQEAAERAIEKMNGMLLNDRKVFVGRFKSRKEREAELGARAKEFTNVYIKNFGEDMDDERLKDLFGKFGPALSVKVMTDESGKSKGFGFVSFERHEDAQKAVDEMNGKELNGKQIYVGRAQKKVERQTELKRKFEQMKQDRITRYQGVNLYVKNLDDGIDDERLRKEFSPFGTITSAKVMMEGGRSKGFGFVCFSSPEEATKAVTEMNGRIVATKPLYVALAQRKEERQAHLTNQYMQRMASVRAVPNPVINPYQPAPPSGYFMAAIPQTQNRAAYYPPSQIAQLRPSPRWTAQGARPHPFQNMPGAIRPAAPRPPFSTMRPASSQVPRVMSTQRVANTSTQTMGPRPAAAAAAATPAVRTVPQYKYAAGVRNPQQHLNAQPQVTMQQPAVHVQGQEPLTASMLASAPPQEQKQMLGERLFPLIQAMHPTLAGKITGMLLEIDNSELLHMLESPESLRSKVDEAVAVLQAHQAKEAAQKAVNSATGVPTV
Tyrosine-protein phosphatase non-receptor type 5, sequence (P54829 whole entry): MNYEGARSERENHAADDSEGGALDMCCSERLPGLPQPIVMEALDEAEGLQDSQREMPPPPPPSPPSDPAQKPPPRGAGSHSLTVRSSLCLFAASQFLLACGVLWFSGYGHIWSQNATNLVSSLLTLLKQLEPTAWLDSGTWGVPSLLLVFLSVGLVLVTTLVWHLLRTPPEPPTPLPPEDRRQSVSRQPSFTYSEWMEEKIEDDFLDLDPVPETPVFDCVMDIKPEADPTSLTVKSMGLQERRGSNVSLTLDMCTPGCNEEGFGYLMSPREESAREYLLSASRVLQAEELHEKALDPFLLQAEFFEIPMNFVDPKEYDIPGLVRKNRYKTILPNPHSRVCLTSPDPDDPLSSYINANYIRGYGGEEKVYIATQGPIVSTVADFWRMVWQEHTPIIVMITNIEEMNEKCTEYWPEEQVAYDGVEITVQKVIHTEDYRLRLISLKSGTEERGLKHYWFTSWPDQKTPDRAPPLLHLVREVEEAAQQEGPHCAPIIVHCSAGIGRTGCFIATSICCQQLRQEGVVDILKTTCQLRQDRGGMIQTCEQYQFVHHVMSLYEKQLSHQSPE
Dual specificity protein phosphatase 3, sequence (P51452 whole entry): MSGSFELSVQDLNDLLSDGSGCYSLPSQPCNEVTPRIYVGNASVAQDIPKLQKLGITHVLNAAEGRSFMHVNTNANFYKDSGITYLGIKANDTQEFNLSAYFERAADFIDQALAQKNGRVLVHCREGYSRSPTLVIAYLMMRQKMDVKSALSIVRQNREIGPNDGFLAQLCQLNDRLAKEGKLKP
FAD-linked sulfhydryl oxidase ALR, sequence (P55789 whole entry): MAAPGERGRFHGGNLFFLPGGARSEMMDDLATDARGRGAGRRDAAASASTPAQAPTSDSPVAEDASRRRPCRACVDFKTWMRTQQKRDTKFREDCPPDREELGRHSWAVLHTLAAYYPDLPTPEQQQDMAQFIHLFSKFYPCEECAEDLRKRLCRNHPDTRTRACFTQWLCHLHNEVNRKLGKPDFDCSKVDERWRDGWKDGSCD
Cytochrome P450 2C9, sequence (P11712 whole entry): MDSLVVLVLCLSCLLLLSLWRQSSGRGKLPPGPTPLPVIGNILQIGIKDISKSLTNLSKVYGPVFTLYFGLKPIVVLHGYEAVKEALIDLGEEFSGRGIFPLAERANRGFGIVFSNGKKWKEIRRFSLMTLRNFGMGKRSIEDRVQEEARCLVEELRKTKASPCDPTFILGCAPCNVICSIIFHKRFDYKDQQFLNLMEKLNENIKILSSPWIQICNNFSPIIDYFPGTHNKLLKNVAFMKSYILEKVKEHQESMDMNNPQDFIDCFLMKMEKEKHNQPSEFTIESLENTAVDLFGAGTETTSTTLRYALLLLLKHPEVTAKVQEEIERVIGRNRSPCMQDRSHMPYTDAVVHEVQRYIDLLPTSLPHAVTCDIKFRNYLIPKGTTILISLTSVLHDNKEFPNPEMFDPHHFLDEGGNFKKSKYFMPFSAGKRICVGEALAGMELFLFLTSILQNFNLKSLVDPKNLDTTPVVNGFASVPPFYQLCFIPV
Induced myeloid leukemia cell differentiation protein Mcl-1, sequence (Q07820 whole entry): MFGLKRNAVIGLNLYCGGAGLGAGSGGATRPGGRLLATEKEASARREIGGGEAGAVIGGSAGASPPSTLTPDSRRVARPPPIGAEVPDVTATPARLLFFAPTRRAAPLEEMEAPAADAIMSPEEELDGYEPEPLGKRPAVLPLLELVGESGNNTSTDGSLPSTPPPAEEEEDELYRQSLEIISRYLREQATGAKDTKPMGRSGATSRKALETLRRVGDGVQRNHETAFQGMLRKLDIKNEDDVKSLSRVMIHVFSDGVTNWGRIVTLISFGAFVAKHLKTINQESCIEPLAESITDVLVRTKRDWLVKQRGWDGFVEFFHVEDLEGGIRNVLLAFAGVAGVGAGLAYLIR

With O=S(=O)(Nc1ccc(Cl)cc1)c1ccc(N2CCOCC2)c(NC(=S)NCCN2CCOCC2)c1 the IC50 [1] was 1.1 µM (active), the IC50 [2] was 0.342 µM (active) and the IC50 [3] was 8.03 µM (active). For the same compound, the IC50 [4] was > 80 µM (inactive).
In the case of COc1ccc(NC(=O)N2CC[C@@]3(CCCN(C(=O)c4c(C)noc4C)C3)C2)cc1, the AC50 (Cytochrome P450 3A4) is reported as 7.94 µM (inconclusive), the AC50 (Cytochrome P450 1A2) is reported as “inconclusive” and the AC50 (Cytochrome P450 2C9) is reported as “inconclusive”.
With C/C(=N\Nc1ccc(C(=O)O)cc1)c1ccc2c(c1)Nc1ccccc1S2 the EC50 [5] was 3.9 µM (active), the AC50 (HeLa) was 48.5 µM (active) and the IC50 (Fatty acid synthase [6]) was 6.48 µM (active). For the same compound, the AC50 [7] was 0.013 µM (active), the EC50 (Streptokinase A) was > 150 µM (not active) and the IC50 (Fatty acid synthase [8]) was 11.7 µM (active). For the same compound, the IC50 [9] was 36 µM (active) and the EC50 (Streptococcus) was 7.08 µM (active).
For COCCCNC(=O)C1CCC(=O)N1Cc1ccccc1Cl (configuration not stated), the AC50 (Cytochrome P450 2D6) was 25.1 µM (inconclusive), the AC50 (Cytochrome P450 1A2) was “inconclusive” and the AC50 (Cytochrome P450 2C19) was 22.4 µM (inconclusive).
In the case of Fc1ccccc1N=C(S)Nc1cccc2cnccc12, the IC50 [10] is reported as > 66 µM (inactive), the IC50 [11] is reported as > 66 µM (inactive) and the AC50 [12] is reported as 5.56 µM (active). For the same compound, the CC50 (Vero) was > 40 µM (active).
In the case of CCCCCOc1ccc(CN2CCOCC2)cc1Cl, the IC50 [13] is reported as > 79.4 µM (inactive), the EC50 [14] is reported as 1.05 µM (active) and the EC50 [15] is reported as 1.3 µM (active). For the same compound, the EC50 [16] was 0.731 µM (active), the IC50 [17] was > 79.4 µM (inactive) and the EC50 (H4) was 35.5 µM (active). The EC50 [18] was < 0.1 µM (inconclusive), the IC50 [19] was > 79.4 µM (inactive) and the EC50 [20] was < 0.1 µM (active).
In the case of CCCCc1nc2cc(C(=O)N3CCN(c4nc(C)cnc4C)CC3)ccc2o1, the AC50 (HeLa) is reported as 47.3 µM (active).
